Test results published in ChEMBL document CHEMBL2311461, “Linear and cyclic glycopeptide as HIV protease inhibitors” (Eur J Med Chem, 2013).

Assay: Inhibition of C-south african HIV-1 protease assessed as hydrolysis of the chromogenic peptide substrate Lys-Ala-Arg-Val-Nle-p-nitro-Phe-Glu-Ala-Nle-NH2
Parameters: species or system Human immunodeficiency virus 1

Structure (SMILES) | IC50
CC[C@H](C)[C@@H]1NC(=O)[C@H](C)NC(=O)[C@H](CCC(=O)O)NC(=O)C[C@@H](C2O[C@@H]3OC(C)(C)O[C@@H]3[C@H]2O)NC1=O (some centres not stated) | 2620 nM
CC[C@H](C)[C@@H]1NC(=O)[C@H](C)NC(=O)C[C@@H](C2O[C@@H]3OC(C)(C)O[C@@H]3[C@H]2O)NC(=O)[C@H](CO)NC1=O (some centres not stated) | 3000 nM
CC(C)[C@@H]1NC(=O)[C@H](Cc2ccccc2)NC(=O)C[C@@H](C2O[C@@H]3OC(C)(C)O[C@@H]3[C@H]2O)NC(=O)[C@H](C)NC1=O (some centres not stated) | 961 nM
CC[C@H](C)[C@@H]1NC(=O)[C@H](C)NC(=O)[C@H](CCC(=O)OCc2ccccc2)NC(=O)C[C@@H](C2O[C@@H]3OC(C)(C)O[C@@H]3[C@H]2OCc2ccccc2)NC1=O (some centres not stated) | 2500 nM
CC[C@H](C)[C@@H]1NC(=O)[C@H](C)NC(=O)C[C@@H](C2O[C@@H]3OC(C)(C)O[C@@H]3[C@H]2OCc2ccccc2)NC(=O)[C@H](COCc2ccccc2)NC1=O (some centres not stated) | > 10000 nM
CC(C)[C@@H]1NC(=O)[C@H](Cc2ccccc2)NC(=O)C[C@@H](C2O[C@@H]3OC(C)(C)O[C@@H]3[C@H]2OCc2ccccc2)NC(=O)[C@H](C)NC1=O (some centres not stated) | 6500 nM
CC[C@H](C)[C@H](NC(=O)[C@H](C)NC(=O)[C@H](CCC(=O)O)NC(=O)C[C@H](N)C1O[C@@H]2OC(C)(C)O[C@@H]2[C@H]1O)C(=O)O (some centres not stated) | 3050 nM
CC[C@H](C)[C@H](NC(=O)[C@H](C)NC(=O)C[C@H](N)C1O[C@@H]2OC(C)(C)O[C@@H]2[C@H]1O)C(=O)N[C@@H](CO)C(=O)O (some centres not stated) | 1500 nM
CC(C)[C@H](NC(=O)[C@H](Cc1ccccc1)NC(=O)C[C@H](N)C1O[C@@H]2OC(C)(C)O[C@@H]2[C@H]1O)C(=O)N[C@@H](C)C(=O)O (some centres not stated) | 1100 nM
CC[C@H](C)[C@H](NC(=O)[C@H](C)NC(=O)[C@H](CCC(=O)OCc1ccccc1)NC(=O)C[C@H](N)C1O[C@@H]2OC(C)(C)O[C@@H]2[C@H]1OCc1ccccc1)C(=O)O (some centres not stated) | 3500 nM
CC[C@H](C)[C@H](NC(=O)[C@H](C)NC(=O)C[C@H](N)C1O[C@@H]2OC(C)(C)O[C@@H]2[C@H]1OCc1ccccc1)C(=O)N[C@@H](COCc1ccccc1)C(=O)O (some centres not stated) | > 10000 nM
CC(C)[C@H](NC(=O)[C@H](Cc1ccccc1)NC(=O)C[C@H](N)C1O[C@@H]2OC(C)(C)O[C@@H]2[C@H]1OCc1ccccc1)C(=O)N[C@@H](C)C(=O)O (some centres not stated) | 1340 nM
CC[C@H](C)[C@H](NC(=O)[C@H](C)NC(=O)[C@H](CCC(=O)OCc1ccccc1)NC(=O)C[C@H](NCc1ccccc1)C1O[C@@H]2OC(C)(C)O[C@@H]2[C@H]1OCc1ccccc1)C(=O)O (some centres not stated) | 5000 nM
CC[C@H](C)[C@H](NC(=O)[C@H](C)NC(=O)C[C@H](NCc1ccccc1)C1O[C@@H]2OC(C)(C)O[C@@H]2[C@H]1OCc1ccccc1)C(=O)N[C@@H](COCc1ccccc1)C(=O)O (some centres not stated) | > 10000 nM
CC(C)[C@H](NC(=O)[C@H](Cc1ccccc1)NC(=O)C[C@H](NCc1ccccc1)C1O[C@@H]2OC(C)(C)O[C@@H]2[C@H]1OCc1ccccc1)C(=O)N[C@@H](C)C(=O)O (some centres not stated) | 2380 nM
COC(=O)N[C@H](C(=O)N[C@@H](Cc1ccccc1)[C@@H](O)CN(Cc1ccc(-c2ccccn2)cc1)NC(=O)[C@@H](NC(=O)OC)C(C)(C)C)C(C)(C)C [ATAZANAVIR] | 4 nM
Cc1cccc(C)c1OCC(=O)N[C@@H](Cc1ccccc1)[C@@H](O)C[C@H](Cc1ccccc1)NC(=O)[C@H](C(C)C)N1CCCNC1=O [LOPINAVIR] | 25 nM
